How the values were obtained:
[1] = Solubility in aqueous medium (buffer pH 5); format: physicochemical; conditions: acetic acid/KOH buffer pH 5, stirred 24 h at room temperature, HPLC/UV of supernatant
Experimental: Solubility of Compounds was determined in aqueous medium using the following procedure.
Two mg of Compound (2 mg) was added to 200 μl buffer (acetic acid/KOH) solution at pH 5. Solution was then stirred for 24 h at room temperature and then centrifuged 10 min at 16,000 rpm. Corresponding supernatants were analyzed by HPLC and UV detection. Calculation of a given Compound concentration was performed by reporting area under the experimental slope onto a calibration slope obtained separately using DMSO-solubilised Compound at different concentrations.

[2] = Colour of compound; format: physicochemical
[3] = system: VEGF-induced blood-retinal barrier breakdown; experiment: Inhibition of vascular leakage in a rat model of blood-retinal barrier breakdown; format: in vivo; conditions: intravitreal VEGF164 100 ng, 0.58% (5.8 mg/ml buffer pH 5) topical 10 μl six times over 27 h, Evans blue in retina
Experimental: We investigated the efficacy of topical administration of compound 5 of the invention in reducing the retinal leakage in a VEGF-induced blood-retinal barrier breakdown in the rat. Rats were treated by a single intravitreal injection of 5 μl (100 ng) recombinant rat VEGF164 (RD systems) into each eye.
During twenty-seven hours following VEGF injection, 0.58% test compound 5 of the invention (5.8 mg/ml buffer pH 5) and control without compound of the invention were administered six times by topical administration (10 μl) in eyes of sixteen rats.
Twenty-seven hours after the VEGF challenge, Evans blue dye (45 mg/kg) was injected intravenously and the dye was allowed to circulate during two hours.
Then, each rat was infused with 0.05M citrate buffer pH 3.5 (37° C.) for 2 minutes to allow clearance of the dye. Immediately after said perfusion, both eyes were enucleated and Evans blue dye was extracted by incubating each retina in formamide (Qaum et al Invest. Ophthalmol. Vis. Sci. 2001, Vol 42, No 10). Afterward, the absorbance was measured with a spectrophotometer at 620 nm.
Breakdown of the blood-retinal barrier was proportional to the concentration of Evans blue in the retina normalized by Evans blue concentrations in the plasma.

| Compound | Soiubility (pH 5) in mg/ml [1] | Solubility (pH 5) in % [1] | Colour [2] | reduction of vascular leakage compared to control [3] |
| --- | --- | --- | --- | --- |
| Cc1cc(-c2cc(O)ccc2Cl)cn2nc(Nc3ccc(OCCN4CCCC4)cc3)nc12.Cl [compound 9, 4-Chloro-3-{8-methyl-2-[4-(2-pyrrolidin-1-yl-ethoxy)-phenylamino]-[1,2,4]triazolo[1,5-a]pyridin-6-yl}-phenol, hydrochloride] | 1 mg/ml | 0.1% | Colourless |  |
| Oc1ccc(Cl)c(-c2ccc3nc(Nc4cccc(OCCN5CCOCC5)c4)nn3c2)c1 [compound 12, 4-Chloro-3-{2-[3-(2-morpholin-4-yl-ethoxy)-phenylamino]-[1,2,4]triazolo[1,5-a]pyridin-6-yl}-phenol] | 0.2 mg/ml | 0.02% | Colourless |  |
| CN(C)CCOc1ccc(Nc2nc3ccc(-c4cc(O)ccc4Cl)cn3n2)cc1 [compound 14, 4-Chloro-3-{2-[4-(2-dimethylamino-ethoxy)-phenylamino]-[1,2,4]triazolo[1,5-a]pyridin-6-yl}-phenol] | >10 mg/ml | >1% | Colourless |  |
| CN(C)[C@@H]1CCN(C(=O)COc2ccc(Nc3nc4ccc(-c5cc(O)ccc5Cl)cn4n3)cc2)C1.Cl [compound 6, 2-{4-[6-(2-Chloro-5-hydroxy-phenyl)-[1,2,4]triazolo[1,5-a]pyridin-2-ylamino]-phenoxy}-1-((R)-3-dimethylamino-pyrrolidin-1-yl)-ethanone, hydrochloride] | 0.9 mg/ml | 0.1% | Colourless |  |
| CN(C)CCOc1cccc(Nc2nc3ccc(-c4cc(O)ccc4Cl)cn3n2)c1 [compound 15, 4-Chloro-3-{2-[3-(2-dimethylamino-ethoxy)-phenylamino]-[1,2,4]triazolo[1,5-a]pyridin-6-yl}-phenol] | 0.7 mg/ml | 0.07% | Colourless |  |
| Oc1ccc(Cl)c(-c2ccc3nc(Nc4cccc(OCCN5CCCC5)c4)nn3c2)c1 [compound 16, 4-Chloro-3-{2-[3-(2-pyrrolidin-1-yl-ethoxy)-phenylamino]-[1,2,4]triazolo[1,5-a]pyridin-6-yl}-phenol] | 0.1 mg/ml | 0.01% | Colourless |  |
| Cl.Oc1ccc(Cl)c(-c2ccc3nc(Nc4ccc(OCCN5CCCC5)cc4)nn3c2)c1 [compound 5, 4-Chloro-3-{2-[4-(2-pyrrolidin-1-yl-ethoxy)-phenylamino]-[1,2,4]triazolo[1,5-a]pyridin-6-yl}-phenol, hydrochloride] | 5.4 mg/ml | 0.3% | Colourless | 71% |
| Cl.Oc1ccc(Cl)c(-c2ccn3nc(Nc4ccc(OCCN5CCCC5)cc4)nc3c2)c1 [compound 10, 4-Chloro-3-{2-[4-(2-pyrrolidin-1-yl-ethoxy)-phenylamino]-[1,2,4]triazolo[1,5-a]pyridin-7-yl}-phenol, hydrochloride] | 2 mg/ml | 0.2% | Colourless |  |
| O=C1N(CCN2CCCC2)CCN1c1ccc(Nc2nc3ccc(-c4cc(O)ccc4Cl)cn3n2)cc1 [compound 7, 1-{4-[6-(2-Chloro-5-hydroxy-phenyl)-[1,2,4]triazolo[1,5-a]pyridin-2-ylamino]-phenyl}-3-(2-pyrrolidin-1-yl-ethyl)-imidazolidin-2-one] | 0.22 mg/ml | 0.022% | Colourless |  |

From patent US20120041195A1, “Heterocyclic compounds” (FOVEA PHARMACEUTICALS, priority 2009, published 2012)
